# Measurements reported in patent US7138361B2, “Herbicidal heterocycles” (E. I. du Pont de Nemours and Company, priority 2000, dated 2006).
# Assays:
# Type in all cases: in vivo
# [1] = test system: Surinam grass (Brachiaria decumbens); assay: Test B postemergence; conditions: 13 to 15 days
# Procedure, shortened: (§1)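 Ratings on a 0 to 100 visual scale (100 complete control) compare treated plants with controls 13 to 15 days after application. Treatments were pre- or postemergence sprays of compound in non-phytotoxic solvent with surfactant.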
# [2] = test system: morning glory (Ipomoea hederacea); assay: Test B postemergence; conditions: 13 to 15 days
# Procedure, shortened: as §1
# [3] = test system: blackgrass (Alopecurus myosuroides); assay: Test B postemergence; conditions: 13 to 15 days
# Procedure, shortened: as §1
# [4] = test system: velvetleaf (Abutilon theophrasti); assay: Test B postemergence; conditions: 13 to 15 days
# Procedure, shortened: as §1
# [5] = test system: pigweed (Amaranthus retroflexus); assay: Test B postemergence; conditions: 13 to 15 days
# Procedure, shortened: as §1
# corn (Zea mays) [6] = assay: Test B postemergence; conditions: 13 to 15 days
# Procedure, shortened: as §1
# [7] = test system: wheat (Triticum aestivum); assay: Test B postemergence; conditions: 13 to 15 days
# Procedure, shortened: as §1
# [8] = test system: barnyardgrass (Echinochloa crus-galli); assay: Test B postemergence; conditions: 13 to 15 days
# Procedure, shortened: as §1
# [9] = test system: giant foxtail (Setaria faberii); assay: Test B postemergence; conditions: 13 to 15 days
# Procedure, shortened: as §1
# Nightshade = assay: Test C preemergence; conditions: Rate 250 g/ha, visual evaluation after 12 to 14 days
# [10] = test system: Surinam grass (Brachiaria decumbens); assay: Test B preemergence; conditions: scale 0 to 100, 0 no effect, 100 complete control
# Procedure, shortened: as §1
# [11] = test system: morning glory (Ipomoea hederacea); assay: Test B preemergence; conditions: scale 0 to 100, 0 no effect, 100 complete control
# Procedure, shortened: as §1
# rice (Oryza saliva) [12] = assay: Test B preemergence; conditions: scale 0 to 100, 0 no effect, 100 complete control
# Procedure, shortened: as §1
# [13] = test system: velvetleaf (Abutilon theophrasti); assay: Test B preemergence; conditions: scale 0 to 100, 0 no effect, 100 complete control
# Procedure, shortened: as §1
# [14] = test system: pigweed (Amaranthus retroflexus); assay: Test B preemergence; conditions: scale 0 to 100, 0 no effect, 100 complete control
# Procedure, shortened: as §1
# [15] = test system: crabgrass (Digitaria sanguinalis); assay: Test B preemergence; conditions: preemergence; Rate 125 g/ha; scale 0 to 100, 0 no effect, 100 complete control
# Procedure, shortened: as §1
# corn (Zea mays) [16] = assay: Test B preemergence; conditions: scale 0 to 100, 0 no effect, 100 complete control
# Procedure, shortened: as §1
# [17] = test system: cocklebur (Xanthium strumarium); assay: Test B preemergence; conditions: scale 0 to 100, 0 no effect, 100 complete control
# Procedure, shortened: as §1
# [18] = test system: barnyardgrass (Echinochloa crus-galli); assay: Test B preemergence; conditions: scale 0 to 100, 0 no effect, 100 complete control
# Procedure, shortened: as §1
# [19] = test system: giant foxtail (Setaria faberii); assay: Test B preemergence; conditions: scale 0 to 100, 0 no effect, 100 complete control
# Procedure, shortened: as §1
# Sunflower = assay: Test C preemergence; conditions: Rate 125 g/ha, scale 0 to 100, 0 no effect, 100 complete control
# rice (Oryza saliva) [20] = assay: Test C flooded paddy test; conditions: for Rice plant response rating: Flooded Paddy, scale 0 to 100, 0 no effect, 100 complete control; for Plant response rating, Rice: flooded paddy test, scale 0 to 100 (0 no effect, 100 complete control)
# Procedure, shortened: (§2)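 Greenhouse-maintained for 12 to 14 days after treatment, the paddy plants (2-leaf stage at application) were scored visually against controls. A score of 0 denotes no effect and a score of 100 denotes complete control.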
# [21] = test system: smallflower flatsedge (Cyperus difformis); assay: Test C flooded paddy test; conditions: for Flatsedge plant response rating: Flooded Paddy, scale 0 to 100, 0 no effect, 100 complete control; for Plant response rating, Flatsedge: flooded paddy test, scale 0 to 100 (0 no effect, 100 complete control)
# Procedure, shortened: as §2
# [22] = test system: duck salad (Heteranthera limosa); assay: Test C flooded paddy test; conditions: for Ducksalad plant response rating: Flooded Paddy, scale 0 to 100, 0 no effect, 100 complete control; for Plant response rating, Ducksalad: flooded paddy test, scale 0 to 100 (0 no effect, 100 complete control)
# Procedure, shortened: as §2
# [23] = test system: barnyardgrass (Echinochloa crus-galli); assay: Test C flooded paddy test; conditions: for Barnyardgrass plant response rating: Flooded Paddy, scale 0 to 100, 0 no effect, 100 complete control; for Plant response rating, Barnyardgrass: flooded paddy test, scale 0 to 100 (0 no effect, 100 complete control)
# Procedure, shortened: as §2
# [24] = Rate 125 g/ha, scale 0 (no effect) to 100 (complete control)
# [25] = Rate 500 g/ha, scale 0 to 100, 0 is no effect, 100 is complete control
compound,measurement,setting,value
CCC(C)c1ccn(C2SCN(c3cccc(C(F)(F)F)c3)C2=O)n1 (stereo not shown) [Compound 20],"Plant response rating, Surinam grass",[1]; [24],0
same,"Plant response rating, Surinam grass",[1]; [25],0
same,"Plant response rating, Morningglory",[2]; [24],60
same,"Plant response rating, Morningglory",[2]; [25],60
same,"Plant response rating, Blackgrass",[3]; [24],0
same,"Plant response rating, Blackgrass",[3]; [25],0
same,"Plant response rating, Velvetleaf",[4]; [24],10
same,"Plant response rating, Velvetleaf",[4]; [25],20
same,"Plant response rating, Pigweed",[5]; [24],90
same,"Plant response rating, Pigweed",[5]; [25],90
same,"Plant response rating, Corn",corn (Zea mays) [6]; [24],0
same,"Plant response rating, Corn",corn (Zea mays) [6]; [25],20
same,"Plant response rating, Wheat",[7]; [24],0
same,"Plant response rating, Wheat",[7]; [25],0
same,"Plant response rating, Barnyardgrass",[8]; [24],60
same,"Plant response rating, Barnyardgrass",[8]; [25],100
same,"Plant response rating, Foxtail, Giant",[9]; [24],50
same,"Plant response rating, Foxtail, Giant",[9]; [25],90
same,"Plant response rating (0 to 100), Nightshade",Nightshade,90
same,"Plant response rating, Surinam grass","[10]; Preemergence, Rate 500 g/ha",0
same,"Plant response rating, Surinam grass","[10]; preemergence, Rate 125 g/ha",0
same,"Plant response rating, Morningglory","[11]; Preemergence, Rate 500 g/ha",0
same,"Plant response rating, Morningglory","[11]; preemergence, Rate 125 g/ha",0
same,"Plant response rating, Rice","rice (Oryza saliva) [12]; Preemergence, Rate 500 g/ha",0
same,"Plant response rating, Rice","rice (Oryza saliva) [12]; preemergence, Rate 125 g/ha",0
same,"Plant response rating, Velvetleaf","[13]; Preemergence, Rate 500 g/ha",0
same,"Plant response rating, Velvetleaf","[13]; preemergence, Rate 125 g/ha",0
same,"Plant response rating, Pigweed","[14]; Preemergence, Rate 500 g/ha",100
same,"Plant response rating, Pigweed","[14]; preemergence, Rate 125 g/ha",0
same,"Plant response rating, Crabgrass",[15],0
same,"Plant response rating, Corn","corn (Zea mays) [16]; Preemergence, Rate 500 g/ha",0
same,"Plant response rating, Corn","corn (Zea mays) [16]; preemergence, Rate 125 g/ha",0
same,"Plant response rating, Cocklebur","[17]; Preemergence, Rate 500 g/ha",0
same,"Plant response rating, Cocklebur","[17]; preemergence, Rate 125 g/ha",0
same,"Plant response rating, Barnyardgrass","[18]; Preemergence, Rate 500 g/ha",100
same,"Plant response rating, Barnyardgrass","[18]; preemergence, Rate 125 g/ha",0
same,"Plant response rating, Foxtail, Giant","[19]; Preemergence, Rate 500 g/ha",100
same,"Plant response rating, Foxtail, Giant","[19]; preemergence, Rate 125 g/ha",70
same,"Plant response rating, Sunflower",Sunflower,40
same,Rice plant response rating,rice (Oryza saliva) [20]; Rate 250 g/ha,60
same,Rice plant response rating,rice (Oryza saliva) [20]; Rate 500 g/ha,70
same,"Plant response rating, Rice",rice (Oryza saliva) [20]; Rate 62 g/ha,0
same,"Plant response rating, Rice",rice (Oryza saliva) [20]; Rate 125 g/ha,20
same,Flatsedge plant response rating,[21]; Rate 250 g/ha,100
same,Flatsedge plant response rating,[21]; Rate 500 g/ha,100
same,"Plant response rating, Flatsedge",[21]; Rate 62 g/ha,90
same,"Plant response rating, Flatsedge",[21]; Rate 125 g/ha,100
same,Ducksalad plant response rating,[22]; Rate 250 g/ha,100
same,Ducksalad plant response rating,[22]; Rate 500 g/ha,100
same,"Plant response rating, Ducksalad",[22]; Rate 62 g/ha,100
same,"Plant response rating, Ducksalad",[22]; Rate 125 g/ha,100
same,Barnyardgrass plant response rating,[23]; Rate 250 g/ha,100
same,Barnyardgrass plant response rating,[23]; Rate 500 g/ha,100
same,"Plant response rating, Barnyardgrass",[23]; Rate 62 g/ha,70
same,"Plant response rating, Barnyardgrass",[23]; Rate 125 g/ha,100
